Several values for one entry are separate records, joined by “and”; a condition that tells them apart may be missing. Identical values can stand only once. Entries after “also recorded” stand apart in the source; their conditions may differ. Like-named read-outs stand apart in the source and are kept apart here.

The values below come from US6673355B1 (priority 1995, dated 2004).

The test system of one data set is CD1 mice ileal mucosa. Type of data set: cell-based, mouse.
For the next data set, the system named is 19 day old pups. Particulars: mouse, in vivo.
A further data set relates to insect cells. Particulars: cited from earlier work.
The test system of the next data set is CFTR knock-out mice. The note with it: mouse, in vivo.
For another data set, the system named is CD1 mice. Particulars: mouse, in vivo.
For data set [1] the following is noted: in vivo.
Another data set concerns Balb/C mice. Particulars: mouse, in vivo, ip.
Data set [2] concerns infectious SA11 rotavirus. The note with it: mouse, in vivo.
Data set [3] relates to mice. Particulars: mouse, in vivo.
Data set [4] relates to mice. The note with it: mouse, in vivo; cited from earlier work.
A further data set deals with simian rotavirus SA11. The note with it: mouse, in vivo.
In a further data set the target is SA11 VP6 (Rotavirus A, UniProt P03531). Also on record: species or system simian rotavirus SA11. Particulars: in vivo.
The next data set concerns murine rotavirus ECwt. Particulars: mouse, in vivo.
For a further data set, the system named is full-length NSP4. Also on record: species or system simian rotavirus SA11. Particulars: in vivo, sc.

Chain of SA11 VP6 (P03531 whole entry, looked up): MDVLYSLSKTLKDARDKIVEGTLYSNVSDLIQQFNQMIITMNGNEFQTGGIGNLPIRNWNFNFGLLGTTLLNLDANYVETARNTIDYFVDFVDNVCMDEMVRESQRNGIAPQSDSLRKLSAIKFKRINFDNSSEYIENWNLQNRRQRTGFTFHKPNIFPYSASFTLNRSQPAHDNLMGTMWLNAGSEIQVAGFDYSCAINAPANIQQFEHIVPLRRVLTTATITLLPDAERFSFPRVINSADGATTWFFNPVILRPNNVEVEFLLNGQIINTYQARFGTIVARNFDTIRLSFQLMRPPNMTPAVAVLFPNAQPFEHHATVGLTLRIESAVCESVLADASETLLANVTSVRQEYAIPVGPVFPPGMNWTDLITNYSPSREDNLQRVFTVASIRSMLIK

In the case of `C[N+](C)(C)CCOC(N)=O` [Carbachol (Cch), carbachol], in the data set on CD1 mice ileal mucosa, the “Isc with FSK (potentiated effect of FSK)” value turned out to be 64 μA/cm^2; the “increase in mucosal Isc after FSK pretreatment” value was determined as 63 μA/cm2; the “▴ISC” value is 9 ± 2 μA/cm^2 and 14 ± 4 μA/cm^2.

Consider `C=C[C@@]1(C)CC(=O)[C@]2(O)[C@@]3(C)[C@@H](O)CCC(C)(C)[C@@H]3[C@H](O)[C@H](OC(C)=O)[C@@]2(C)O1` [Forskolin (FSK), forskolin], for which the “▴ISC” value in the data set on CD1 mice ileal mucosa was 44 ± 0.7 μA/cm^2 and 41 ± 7 μA/cm^2.

Regarding DKLTTREIEQVELLKRIYDKLT [NSP4 114-135], in the data set on 19 day old pups, the diarrhea result is recorded as “no diarrhea was seen” and the intestinal fluid accumulation entry is “significant fluid accumulation”. Further, the “intracellular calcium in insect cells” value with insect cells is recorded as “mobilize intracellular calcium levels”. The “% of animals with diarrhea” value in the data set on CFTR knock-out mice is recorded as 80%. In the data set on CD1 mice ileal mucosa, the “increase in mucosal Isc after FSK pretreatment” value is recorded as 64 μA/cm2. For the same compound, the “time frame of diarrhea induction” value in the data set with CD1 mice is given as “about 3 hrs”. For the same compound, in the data set with CD1 mice (ip), the “# responders/total # tested” value is listed as 8/12, the “% Diarrhea” value is 67%, the “DD50 (50% diarrheal dose)” value stood at 79 nmol and the “diarrhea typically continued for” value was “up to 8 hr”. Also, in data set [1], the “weight lower than normal animals” value is 20-30%. For the same compound, the “% Diarrhea” value in the data set on Balb/C mice was 100% and 80%. For the same compound, in data set [2], the “% pups with diarrhea, 2 days” value turned out to be 17%; the “% pups with diarrhea, 3 days” value is 0%; the “% pups with diarrhea, Total” value amounted to 42%; the “pups with diarrhea/total pups, 2 days” value is “(2/12)”. Moreover, in data set [2], the “pups with diarrhea/total pups, 3 days” value is listed as “(0/12)” and the “pups with diarrhea/total pups, Total” value is “(5/12)”.

Take DTGRNLGEFKAYPDGFLTCV [NV 464-483]: in the data set with CD1 mice (ip), the “# responders/total # tested” value is listed as 0/10, the “% Diarrhea” value stood at 0% and the “symptoms with control peptides” value is listed as “No symptoms”.

Turning to “EIEQVELLKRIYDKLTVQTTGEIDMTKE [NSP4 120-147]”, in the data set with mice [3], the “% animals with diarrhea” value was 88%, the animals with diarrhea is reported as 7 out of 8 and the “animals with severe diarrhea” value is listed as 5 of 5.

Consider EKLTDLNYTLSVITLMNNTLH [NSP4 2-22], for which, in the data set on CD1 mice (ip), the “# responders/total # tested” value is on record as 0/11, the “% Diarrhea” value stood at 0% and the “symptoms with control peptides” value is “No symptoms”. In [2], the “% pups with diarrhea, 2 days” value came out at 63%; the “% pups with diarrhea, 3 days” value came out at 25%; the “% pups with diarrhea, Total” value amounted to 100%; the “pups with diarrhea/total pups, 2 days” value is “(10/16)”. Further, in [2], the “pups with diarrhea/total pups, 3 days” value was “(4/16)” and the “pups with diarrhea/total pups, Total” value is listed as “(16/16)”.

Turning to “MIDKLTTREI EQVELL KRIYDKLTVQTTGEIDMTKEINQKNVRTLEEWESGKNPYEPKEVTAAM [NSP4 112-175]”, the enterotoxin activity entry in the data set on mice [4] is recorded as “has enterotoxin activity in mice”.

For QS-21, in the data set on simian rotavirus SA11, the Mean diarrhea score is 3.5 and 3.3; the “Pups with diarrhea % at indicated DPI: 3” value came out at 100%; the “Pups with diarrhea % at indicated DPI: 4” value was found to be 56%; the “Pups with diarrhea/total at DPI 2” value is recorded as “(8/12); also recorded: (3/9)”. Also, in the data set with simian rotavirus SA11, the “Pups with diarrhea/total at DPI 3” value was “(12/12); also recorded: (9/9)”, the “Pups with diarrhea/total at DPI 4” value is recorded as “(4/12); also recorded: (5/9)”, the “Pups with diarrhea/total at DPI 7” value was “(12/12); also recorded: (9/9)” and the duration of diarrhea result was “at least two days”. Besides, in the data set with simian rotavirus SA11 (po), the “Pups with diarrhea % at indicated DPI: 2” value turned out to be 76%, the “Pups with diarrhea % at indicated DPI: 3” value came to 100% and the “Pups with diarrhea % at indicated DPI: 4” value is 33%. The “serum antibody titers to VP6 in dams (GMT)” value on SA11 VP6 is recorded as 2×10^3. In the data set on murine rotavirus ECwt, the Mean diarrhea score is listed as 3.3, the “Pups with diarrhea % at indicated DPI: 0-8” value is on record as 100%, the “Pups with diarrhea % at indicated DPI: 2” value is reported as 29% and the “Pups with diarrhea % at indicated DPI: 3” value was determined as 100%. Also, in the data set with murine rotavirus ECwt, the “Pups with diarrhea % at indicated DPI: 4” value was 100%, the “Pups with diarrhea % at indicated DPI: 5” value is reported as 100%, the “Pups with diarrhea % at indicated DPI: 6” value was determined as 86% and the “Pups with diarrhea % at indicated DPI: 7” value was found to be 71%. In the data set on murine rotavirus ECwt, the “Pups with diarrhea % at indicated DPI: 8” value is listed as 14%, the “Pups with diarrhea/total at DPI 0-8” value is on record as “(7/7)”, the “Pups with diarrhea/total at DPI 2” value is given as “(2/7)” and the “Pups with diarrhea/total at DPI 3” value is “(7/7)”. Besides, in the data set on murine rotavirus ECwt, the “Pups with diarrhea/total at DPI 4” value is listed as “(7/7)”, the “Pups with diarrhea/total at DPI 5” value is on record as “(7/7)”, the “Pups with diarrhea/total at DPI 6” value was “(6/7)” and the “Pups with diarrhea/total at DPI 7” value is recorded as “(5/7)”. For the same compound, the “Pups with diarrhea/total at DPI 8” value in the data set on murine rotavirus ECwt is listed as “(1/7)”. Besides, the “serum antibody geometric mean titers (GMT) to NSP4 full-length in dams” value in the data set with full-length NSP4 is reported as “lacked antibody”.

“TKDEIEKQMDRVVKEMRRQLEMIDKLTTREIEQ [NSP4 90-123]”: in the data set on CD1 mice (ip), the “# responders/total # tested” value is on record as 2/10 and the “% Diarrhea” value stood at 20%.
